# Assay results published in patent publication US20260258057A1, “CRYSTAL OF BORATE DERIVATIVE, METHOD FOR PREPARING SAME, AND USE THEREOF” (Reistone Biopharma Company Limited, priority 2022, published 2026).
# Legend:
# [1] = system: IL-23 secretion in DC cells; experiment: Inhibition of Zymosan-stimulated IL-23 secretion in DC cells differentiated from human mononuclear cells; format: cell-based; settings: Zymosan 200 μg/ml, 24 hours, ELISA
# Experimental: Day 0: Mononuclear cells were isolated from fresh human peripheral blood and purified, and then resuspended in RPMI-1640 complete medium. When differentiation into DC cells took place, IL-4 at a concentration of 50 ng/ml and GM-CSF at 100 ng/ml were added to the medium, and the cells were cultured at a density of 1×10^6 cells/mL in a culture dish with a diameter of 100 mm for differentiation in an incubator at 37° C. with a carbon dioxide concentration of 5%. Day 3: Half the volume of RPMI complete medium was replaced with fresh RPMI complete medium, and the concentrations of IL-4 and GM-CSF were maintained at 50 ng/ml and 100 ng/ml respectively. Day 6: Non-adherent cells (DC cells) in the culture dish were collected and washed with PBS. The washed DC cells were resuspended with RPMI complete medium at a density of 1×10^6 cells/mL. Then, 1×10^5 DC cells were added to each well of the 96-well cell culture plate and pre-incubated for 1 hour with different dilutions of the compounds to be tested (or DMSO blank negative control at an equivalent concentration), followed by addition of 200 μg/ml of TLR2 agonist Zymosan to stimulate the DC cells for 24 hours. Day 7: After the DC cells were stimulated by Zymosan for 24 hours, the supernatant in each well of the 96-well plate was collected and detected by ELISA for the concentration of IL-23.
# [2] = Dynamic vapor sorption (DVS) hygroscopicity; format: physicochemical
# Text: The ‘9103 Guidelines for Hygroscopicity of Drugs’ in Volume IV of the 2015 edition of Chinese Pharmacopoeia describes the characteristics of hygroscopicity and defines the weight gain by hygroscopicity as follows, • deliquescent: absorbing sufficient moisture to form a liquid; • extremely hygroscopic: the weight gain by hygroscopicity being no less than 15%; • hygroscopic: the weight gain by hygroscopicity being less than 15% but not less than 2%; • slightly hygroscopic: the weight gain by hygroscopicity being less than 2% but not less than 0.2%; • no or almost no hygroscopic: the weight gain by hygroscopicity being less than 0.2%.
# The detection is performed using SMS Intrinsic PLUS at 25° C., with humidity change of 50%-0%-90% with a step size of 10%, in which the criteria for judging is that the mass change dM/dT for each gradient is less than 0.0002%, TMAX is 360 min, and two cycles are performed.
# [3] = Stability test I of crystal form A (temperature and humidity; HPLC and XRPD); format: physicochemical
# Experimental: (§1) 5. High performance liquid chromatography (HPLC) described in the stability test of the crystal form A of the present disclosure is determined on Agilent 1260 Infinity II under the following HPLC conditions: chromatographic column of Agilen XDB C18 5 μm 4.6×250 mm; mobile phase of A—0.05% TFA (in water), and B—ACN; flow rate of 1.0 ml/min; wavelength of 220 nm.
# It is determined whether temperature and humidity have an influence on the stability of crystal form A of the compound of formula I.
# The crystal form A was placed in a stabilizing chamber for accelerated stability tests under a series of temperature and humidity combinations. After being placed for different days under various temperature and humidity conditions, the samples were taken out and compared with the initial crystal form A. The content of the compound of formula I was determined by high performance liquid chromatography, and XRPD detection was performed.
# [4] = Stability test II of crystal form A (light; HPLC and XRPD); format: physicochemical
# Experimental: as §1
# It is determined whether light has an influence on the stability of crystal form A of the compound of formula I.
# The crystal form A was placed in a light stabilizing chamber, and taken out after reaching ICH strength. The resulting solid was compared with the initial crystal form A. The content of the compound of formula I was determined by high performance liquid chromatography, and XRPD detection was performed.
# [5] = system: imiquimod-induced mouse model of psoriasis; experiment: Imiquimod-induced psoriasis suppression assay; format: in vivo, Balb/c female mice; parameters: key to Erythema score, Mean / Psoriasis score, Mean / Thickness score, Mean: 0-5 scale, higher = more severe; key to Total clinical score, Mean: sum of 0-5 component scores; higher = more serious disease; settings: for Ratio of spleen to body weight, Mean: Day 7, percentage of spleen to body weight; for Erythema score, Mean / Psoriasis score, Mean / Thickness score, Mean: Days 1-7; for Total clinical score, Mean: Days 1-7, endpoint of the experiment; for Effect on clinical score at the endpoint of the experiment / Effect on the ratio of spleen to body weight / Effect on the increase in skin thickness: Compound A 0.03%, versus model group; for Effect on clinical score at the endpoint of the experiment: each dose of Compound I (0.01%, 0.03%, 0.1%); for Effect on the ratio of spleen to body weight: three dose groups of Compound I; for Effect on the increase in skin thickness: Compound I low and high dose groups
# Text: An appropriate amount of Compound I was formulated into an ointment with the following components: 0.1% of Compound I, 9% of hexanediol, 78.8% of white petrolatum, 5% of paraffin, 7% of glyceryl mono- and di-stearate, and 0.1% of dihydroxybutyl toluene, which were mechanically stirred until an ointment was formed.
# 7-Week-old Balb/c female mice were used and the hair on their back in an area of 2 cm×3 cm was shaved the day before the experiment. On Days 1-7 of the experiment, the test compounds were applied on the skin, and after 6 hours, imiquimod (IMQ) ointment (Aldara (5%)) was continuously applied to the back skin of mice for 7 days, so as to establish a mouse model of psoriasis, while the control group was given the same dose of petrolatum ointment. On Days 3, 5 and 7, the severity of skin inflammation was assessed, including measurement of skin thickness, crusting and erythema, scored on a 5-point scale (0-5) respectively. The total score was used to assess the severity of skin inflammation. On Day 7 of the experiment, the spleen was collected and weighed, and the percentage of spleen to body weight was calculated to assess the immunosuppressive effect of the drug.
# Normal control group, model control group, low, medium and high dose groups of Compound I (0.01%, 0.03% and 0.1%), and 0.03% reference Compound A group were set up in this experiment.
# The total score of the degree of skin inflammation are the clinical score, the indicators of which are relatively subjective, and higher score indicated more serious disease. The degree of increase in skin thickness was an objective assessment indicator, and more increase in thickness indicated more serious disease. The ratio of spleen to body weight was an objective assessment indicator, and smaller ratio of spleen to body weight indicated stronger immunosuppressive effect of the drug.
# PDE4B1 enzyme = target: T1, PDE4B1 enzyme (Homo sapiens, UniProt Q07343); experiment: In vitro PDE4B enzyme activity detection assay (IMAP FP, FAM-cAMP substrate); format: biochemical; settings: PDE4B1 0.04 nM, FAM-cAMP 0.1 μM, 25° C. 30 min
# T1 construct: purchased BPS 60041
# T1 sequence (Q07343 whole entry): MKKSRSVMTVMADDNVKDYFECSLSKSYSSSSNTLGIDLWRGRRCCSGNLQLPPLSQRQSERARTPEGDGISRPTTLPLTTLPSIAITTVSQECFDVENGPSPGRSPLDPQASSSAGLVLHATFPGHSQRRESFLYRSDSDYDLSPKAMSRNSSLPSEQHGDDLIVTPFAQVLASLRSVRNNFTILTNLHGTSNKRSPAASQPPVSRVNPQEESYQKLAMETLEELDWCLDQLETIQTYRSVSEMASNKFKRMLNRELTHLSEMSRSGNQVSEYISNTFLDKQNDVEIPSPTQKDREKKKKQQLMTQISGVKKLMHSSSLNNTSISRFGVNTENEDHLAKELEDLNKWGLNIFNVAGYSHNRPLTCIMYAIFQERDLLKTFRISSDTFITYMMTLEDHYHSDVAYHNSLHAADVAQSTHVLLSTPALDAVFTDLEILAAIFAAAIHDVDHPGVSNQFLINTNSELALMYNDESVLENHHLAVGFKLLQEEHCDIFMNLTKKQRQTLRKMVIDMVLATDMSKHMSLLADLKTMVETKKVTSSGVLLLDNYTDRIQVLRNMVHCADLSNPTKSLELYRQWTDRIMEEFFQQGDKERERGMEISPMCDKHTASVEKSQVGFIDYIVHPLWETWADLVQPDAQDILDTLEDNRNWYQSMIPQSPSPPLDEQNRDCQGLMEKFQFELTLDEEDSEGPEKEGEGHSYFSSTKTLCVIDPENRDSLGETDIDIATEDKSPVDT
# Experimental: A stock solution of the compound at a concentration of 10 mM was prepared in a test tube with 90% DMSO (10% water), and it was used to prepare a series of dilutions with a dilution factor of 1:5 and final concentrations starting from 100 μM and lowering to 0.05 nM.
# 0.2 μl of the solution of the compound was transferred into a 384-well reaction plate, and 0.2 μl of 100% DMSO was transferred into both the negative and positive controls. Then, 10 μl of 2×PDE4B1 enzyme solution (a final concentration of 0.04 nM) was added to the wells, and 10 μl of 1× reaction buffer (50 mM HEPES, pH 7.5, 0.0015% Brij-35) instead of the enzyme solution was added to the wells of the control without enzyme activity. The plate was centrifuged at 1,000 rpm for 1 min and incubated at room temperature for 15 min. Next, 10 μl of 2×FAM-CAMP substrate solution (a substrate final concentration of 0.1 μM) was added to each well of the 384-well reaction plate. The plate was centrifuged at 1,000 rpm for 1 min, and the reaction was carried out at 25° C. for 30 min. […]
# After completion of the incubation, the RLU data were read and the inhibition rate was calculated. The IC50 value was calculated from the concentration-inhibition fitted curve, wherein the maximum value refers to the reading of the DMSO control and the minimum value refers to the reading of the control without enzyme activity.
# TNF-α release in PBMCs = experiment: Inhibition of LPS-induced TNF-α release in peripheral blood mononuclear cells; format: cell-based; settings: PBMC; LPS 0.1 ng/ml, 24 hours, ELISA
# Experimental: Frozen PBMCs were thawed and detected by Trypan blue staining for cell viability and number. The thawed PBMCs were washed with RPMI1640 complete medium (RPMI1640+10% FBS+1% PS) and centrifuged, and the supernatant was discarded. The PBMCs were resuspended with RPMI1640 complete medium and the cell density was adjusted to 2×10^6 cells/mL. 2×10^5 PBMC cells were plated in a 96-well cell culture plate, and the compounds to be tested were added at different concentrations, in a 1:5 serial dilution of 9 concentrations starting from a maximum compound concentration of 100 μM, each in duplicate wells. LPS was added at a final concentration of 0.1 ng/ml, making a total volume of 200 μL. For the negative and positive controls, only LPS and DMSO were added to the negative control wells, while 1 μg/mL of dexamethasone as a positive control was added to the positive control wells in addition to cells and LPS. The cells were incubated for 24 hours in an incubator at 37° C. After completion of the incubation, 100 μL of cell culture supernatant was collected and detected by ELISA for the TNF-α level. 100 μL of CellTiter-Glo was added to the remaining cells in each well to detect the level of cell viability. The IC50 values of inhibition on TNF-α release by the compounds were calculated.
smiles,measurement,setting,value
O=C(Nc1c(Cl)cncc1Cl)c1ccc(OC(F)F)c(OCC2CC2)c1 [Roflumilast],IC50,[1],12.9 nM
"COc1ccc(-c2cncc([C@@H]3COB(O)C3)n2)c2c1OC(C)(C)CC2 [crystal form A, (R)-4-(6-(8-methoxy-2,2-dimethylbenzodihydropyran-5-yl)pyrazin-2-yl)-1,2-oxaborocyclopentan-2-ol]",Weight gain by hygroscopicity,"[2]; accelerated experimental conditions, 70% RH",approximately 0.15%
same,Crystal form before and after DVS detection (XRPD),"[2]; after DVS, humidity 0% to 90% RH",does not change
same,Weight gain by hygroscopicity,"[2]; extreme conditions, 90% RH",approximately 0.70%
same,Weight gain by hygroscopicity,"[2]; normal storage conditions, 25° C., 60% RH",approximately 0.08%
same,Purity,"[3]; 55 °C, 30% humidity, 18 days",98.01%
same,Purity,"[3]; 55 °C, 79% humidity, 20 days",97.40%
same,Purity,"[3]; 65 °C, 11% humidity, 20 days",97.74%
same,Purity,"[3]; 65 °C, 50% humidity, 20 days",96.16%
same,Purity,"[3]; 65 °C, 75% humidity, 20 days",95.86%
same,Purity,"[3]; 70 °C, 11% humidity, 20 days",97.33%
same,Purity,"[3]; 75 °C, 0% humidity, 20 days",97.41%
same,Purity,"[3]; 75 °C, 50% humidity, 7 days",96.57%
same,Overall stability under temperature and humidity combinations,"[3]; accelerated stability tests, Table 4 conditions",remains unchanged and exhibits good stability
same,Purity,"[3]; initial, 0 days",97.99%
same,Purity,[4]; At 0,97.99%
same,Purity,[4]; Light-0.5 ICH,97.76%
same,Purity,[4]; Light-1.0 ICH,97.15%
"CCCOc1cc(-c2cncc([C@@H]3COB(O)C3)c2)ccc1OC [Compound A, reference compound]",IC50,[1],0.61 nM
same,"Ratio of spleen to body weight, Mean",[5]; 0.03% applied on skin,0.96
same,"Erythema score, Mean",[5]; 0.03% applied on skin,3.33
same,"Psoriasis score, Mean",[5]; 0.03% applied on skin,2.5
same,"Thickness score, Mean",[5]; 0.03% applied on skin,2.5
same,"Total clinical score, Mean",[5]; 0.03% applied on skin,8.33
same,Effect on clinical score at the endpoint of the experiment,[5],significantly reduce
same,Effect on the ratio of spleen to body weight,[5],no significant effect
same,Effect on the increase in skin thickness,[5],no significant effect
"COc1ccc(-c2cncc([C@@H]3COB(O)C3)n2)c2c1OC(C)(C)CC2 [Compound I, (R)-4-(6-(8-methoxy-2,2-dimethylbenzodihydropyran-5-yl)pyrazin-2-yl)-1,2-oxaborocyclopentan-2-ol]",IC50,PDE4B1 enzyme,0.17 nM
same,IC50,TNF-α release in PBMCs,0.055 nM
same,IC50,[1],0.018 nM
same,"Ratio of spleen to body weight, Mean",[5]; 0.01% applied on skin,0.64
same,"Erythema score, Mean",[5]; 0.01% applied on skin,4
same,"Psoriasis score, Mean",[5]; 0.01% applied on skin,3.13
same,"Thickness score, Mean",[5]; 0.01% applied on skin,2.38
same,"Total clinical score, Mean",[5]; 0.01% applied on skin,9.5
same,Inhibitory effect on the increase in skin thickness compared with Compound A at the same dose,[5]; 0.03%,significantly higher
same,"Ratio of spleen to body weight, Mean",[5]; 0.03% applied on skin,0.43
same,"Erythema score, Mean",[5]; 0.03% applied on skin,3.86
same,"Psoriasis score, Mean",[5]; 0.03% applied on skin,2.14
same,"Thickness score, Mean",[5]; 0.03% applied on skin,1.57
same,"Total clinical score, Mean",[5]; 0.03% applied on skin,7.57
same,"Ratio of spleen to body weight, Mean",[5]; 0.1% applied on skin,0.31
same,"Erythema score, Mean",[5]; 0.1% applied on skin,3.63
same,"Psoriasis score, Mean",[5]; 0.1% applied on skin,1.38
same,"Thickness score, Mean",[5]; 0.1% applied on skin,1.75
same,"Total clinical score, Mean",[5]; 0.1% applied on skin,6.75
same,Effect on clinical score at the endpoint of the experiment,[5],significantly reduce
same,Effect on the ratio of spleen to body weight,[5],significantly reduce
same,Effect on the increase in skin thickness,[5],significantly inhibit
